# Assay results published in US9204643B2, “Temperature stable cloquintocet-mexyl aqueous compositions” (Dow AgroSciences LLC, priority 2012, dated 2015).
# Columns and labels:
# [1] = Storage of hydrated CQCM/pyroxsulam concentrate two weeks at 54° C., chemical stability; format: physicochemical; settings: for Chemical Stability: in hydrated CQCM/pyroxsulam concentrate
# Procedure: The aqueous phase was formed by combining water, propylene glycol, antifoam, and wetter surfactant (SYNPERONIC 13/6.5; Croda USA) in a vessel. Powdered anhydrous CQCM was added to the aqueous phase and mixed with a low shear turbine type agitator for 1 hour or until the CQCM was fully converted to the hydrate. A tallow or coco-amine 15 mole ethoxylate (e.g., ETHOMEEN C-25; Akzo Nobel), and MORWET D-425 (Akzo Nobel) were added and mixed in with high shear agitation, followed by the addition of the remaining ingredients shown in Table 4. KELZAN S is a thickener commercially available from CPKelco; Atlanta, Ga. The slurry was then processed through a bead mill to yield the finished product. Short term accelerated storage testing was conducted using freeze/thaw (F/T) conditions during which the temperature was cycled between about −10° C. and 40° C. in a 2 hour period after remaining at −10° C. or 40° C. for 24 hours, as in Example 1. Samples of the composition containing pyroxsulam were also stored for two weeks at 54° C. to evaluate chemical stability of the CQCM […].
# [2] = One year storage stability of hydrated CQCM/pyroxsulam concentrate in an unheated shed; format: physicochemical
# Procedure: A 10 L production batch of the composition shown in Table 4 was prepared, dispatched for field trials in Australia, and stored for 1 year in an unheated shed subjected to temperatures ranging from −4° C. to 43° C.
smiles,measurement,setting,value
COc1cc(OC)n2nc(NS(=O)(=O)c3c(C(F)(F)F)ccnc3OC)nc2n1 [Pyroxsulam],Chemical Analysis (content in concentrate),[1]; 54° C. (2 weeks),4.73 % w/w
same,Chemical Stability,[1]; 54° C. (2 weeks),102%
same,Chemical Analysis (content in concentrate),[1]; initial composition,4.65 % w/w
same,Chemical Stability: Content,"[2]; after 1 year, −4° C. to 43° C.",Pyroxsulam: 4.84 % w/w
same,Chemical Stability: Retention,"[2]; after 1 year, −4° C. to 43° C.",Pyroxsulam: 104%
same,Chemical Stability: Content,[2]; initial,Pyroxsulam: 4.65 % w/w
"CCCCCC(C)OC(=O)COc1ccc(Cl)c2cccnc12 (stereo not drawn) [CQCM, Cloquintocet-mexyl]",Chemical Analysis (content in concentrate),[1]; 54° C. (2 weeks),13.24 % w/w
same,Chemical Stability,[1]; 54° C. (2 weeks),97%
same,Chemical Analysis (content in concentrate),[1]; initial composition,13.69 % w/w
same,Chemical Stability: Content,"[2]; after 1 year, −4° C. to 43° C.",CQCM: 14.40 % w/w
same,Chemical Stability: Retention,"[2]; after 1 year, −4° C. to 43° C.",CQCM: 102%
same,Chemical Stability: Content,[2]; initial,CQCM: 14.15 % w/w
